Target: T1, STING in THP1 cells (HAQ allele) (Homo sapiens, UniProt Q86WV6, G230A/H232R/R293Q/R71H)
T1 construct: host or cells: THP-1 dual reporter cells
Experiment: THP-1 competition assay with STING agonist 2′3′-RR-(A)(A) (IRF-3 luciferase reporter)
Format: cell-based
Conditions: not given
Method: The scaffold molecules and STING inhibitory compounds as described herein are assayed for their ability to inhibit the induction of STING dependent IFN-β production by an agonist compound in a competition assay. Relative induction of IRF-3 signaling in THP-1 cells (HAQ allele) was measured after stimulating the cells with a mix of a scaffold molecule (or any putative STING antagonist) titrated against a constant concentration of the STING agonist 2′3′-RR-(A)(A) in PB buffer (50 mM HEPES pH 7.5, 100 mM KCl, 3 mM MgCl2, 0.1 mM DTT, 85 mM sucrose, 0.2% BSA, 1 mM ATP, 0.1 mM GTP).
One day prior to performing the assay, THP-1 dual (Invivogen) reporter cells were plated at 500,000 cells/mL in 200 μL per well in a 96-well plate and differentiated overnight with 3 μg/mL phorbal myristate acetate in RPMI medium 1640 (4.5 g/L D-glucose, 2.383 g/L HEPES, 300 mg/L L-glutamine, 1.5 g/L sodium bicarbonate, 110 mg/L sodium pyruvate, 10% heat-inactivated fetal bovine serum, 1× penicillin/streptomycin, 0.1 mg/mL normocin).
On the day of the assay, the media was removed from the wells and replaced with 150 μL of fresh media. The titrations against 2′ 3′-RR-(A)(A) in a final volume of 100 μL were made as follows: two-fold dilutions (2,000 μM-3.9 μM) of the scaffold molecule into PB buffer containing 100 μM 2′3′-RR-(A)(A) for a final concentration of 50 μM 2′3′-RR-(A)(A). Compounds were tested in biological triplicate.
The cells were then stimulated with 25 μL of each titration for 30 minutes at 37° C. in a CO2 incubator. After stimulating, the cells were washed twice, first with 100 μL and then 150 μL of fresh media. After washing, 150 μL of media was added to each well and the cells were incubated for 17 hours overnight at 37° C. in a CO2 incubator.
To detect IRF-3 signaling, 50 μL of luciferase substrate (Invivogen QUANTI-Luc coelenterazine-based luminescence reagent reconstituted in 25 mL water) was added to 10 μL of supernatant from each well in a 96-well white opaque plate. Luminescence was measured using a SpectraMax M3 plate reader (Molecular Devices) and relative fold-induction was calculated as the values obtained from wells containing both the scaffold molecule and 2′3′-RR-(A)(A) divided by the values obtained from wells containing 2′3′-RR-(A)(A) alone. The average of the relative fold-induction was plotted against the log concentration of the antagonist. Agonist compounds 2′3′-RR-(G)(A) and RR-(A)(A) were run as controls in this assay (see FIGS. 2A and 2B).
The results are provided for control compounds in FIGS. 2A and 2B and scaffold molecules in FIGS. […]: 2′3′-SR-(3′OTBS-A)(2′F-A) (FIG. 3A, Comp. 6a), SR-(2′F-A)(2′OTBS-A) (FIG. 3B, Comp. 18a), RR-(2,6-DAP)(2,6-DAP) (FIG. 3C, Comp. 23), RS-(2,6-DAP)(2,6-DAP) (FIG. 3D, Comp. 23a), (6-O-propargyl-G)(G) (FIG. 3E, Comp. 25), RR-(2′F-ibG)(2′F-ibG) (FIG. 3F, Comp. 32), RR-(2′F-C)(2′F-A) (FIG. 3G, Comp. 37), RS-(2′F-C)(2′F-A) (FIG. 3H, Comp. 37a), 3′2′-RR-(ibG)(BzA) (FIG. 3I, Comp. 42), 3′2′-SS-(G)(A) (FIG. 3J, Comp. 43), dithio-3′2′-(2′OTBS-G)(3′OTBS-A) isomer 1 (FIG. 3K, Comp. 49, isomer 1), dithio-3′2′-(2′OTBS-G)(3′OTBS-A) isomer 2 (FIG. 3L, Comp. 49, isomer 2), Beta-L-SS-(A)(A) (FIG. 3M, Comp. 48), Beta-L-RS-(A)(A) (FIG. 3N, Comp. 48a), and Beta-L-RR-(A)(A) (FIG. 3O, Comp. 48b). Isomer 1 and 2 of Compound 49 are different isomers, and are each one of compound 49a, 49b, 49c or 49d.

T1 sequence (Q86WV6 whole entry R71H/G230A/H232R/R293Q): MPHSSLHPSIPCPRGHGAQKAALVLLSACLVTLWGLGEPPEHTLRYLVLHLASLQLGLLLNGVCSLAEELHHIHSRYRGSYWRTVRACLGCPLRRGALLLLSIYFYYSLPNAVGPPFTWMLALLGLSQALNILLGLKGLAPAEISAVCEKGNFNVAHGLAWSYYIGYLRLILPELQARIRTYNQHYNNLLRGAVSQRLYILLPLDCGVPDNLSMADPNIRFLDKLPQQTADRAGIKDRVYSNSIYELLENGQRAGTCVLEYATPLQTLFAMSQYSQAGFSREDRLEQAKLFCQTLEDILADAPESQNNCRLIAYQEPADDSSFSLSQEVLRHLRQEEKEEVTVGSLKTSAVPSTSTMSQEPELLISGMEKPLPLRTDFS

Structure (SMILES) | IC50 [µM]
CC(C)(C)[Si](C)(C)O[C@H]1[C@H]2O[P@@](=O)(S)OC[C@H]3O[C@@H](n4cnc5c(N)ncnc54)[C@H](F)[C@@H]3O[P@](=O)(S)OC[C@H]1O[C@H]2n1cnc2c(N)ncnc21 [Compound 6a, dithio-[SP, RP]-cyclic-[3′OTBS-A(2′,5′)p-2′F-A(3′,5′)p]] | 2170

Same assay, conditions: 50 μM 2′3′-RR-(A)(A), scaffold 2,000 μM-3.9 μM, without digitonin, IRF-3 reporter; read-out: IC50 inhibition of 2′3′-RR-(A)(A) agonist activity without digitonin in THP1 cells (HAQ allele)

IC50 [µM] | Structure (SMILES)
152 | Nc1nc(N)c2ncn([C@@H]3O[C@@H]4CO[P@@](=O)(S)O[C@H]5[C@@H](O)[C@H](n6cnc7c(N)nc(N)nc76)O[C@@H]5CO[P@@](=O)(S)O[C@H]4[C@H]3O)c2n1 [Compound 23, (2R,3R,3aS,5R,7aR,9R,10R,10aS,12R,14aR)-2,9-bis(2,6-diamino-9H-purin-9-yl)-3,10-dihydroxy-5,12-dimercaptooctahydro-2H,7H-difuro[3,2-d:3′,2′-j][1,3,7,9]tetraoxa[2,8]diphosphacyclododecine 5,12-dioxide]
150 | Nc1nc(N)c2ncn([C@@H]3O[C@@H]4CO[P@@](=O)(S)O[C@H]5[C@@H](O)[C@H](n6cnc7c(N)nc(N)nc76)O[C@@H]5CO[P@](=O)(S)O[C@H]4[C@H]3O)c2n1 [Compound 23a, (2R,3R,3aS,5R,7aR,9R,10R,10aS,12S,14aR)-2,9-bis(2,6-diamino-9H-purin-9-yl)-3,10-dihydroxy-5,12-dimercaptooctahydro-2H,7H-difuro[3,2-d:3′,2′-j][1,3,7,9]tetraoxa[2,8]diphosphacyclododecine 5,12-dioxide]
803 | CC(C)C(=O)Nc1nc2c(ncn2[C@@H]2O[C@@H]3CO[P@@](=O)(S)O[C@H]4[C@@H](F)[C@H](n5cnc6c(=O)[nH]c(NC(=O)C(C)C)nc65)O[C@@H]4CO[P@@](=O)(S)O[C@H]3[C@H]2F)c(=O)[nH]1 [Compound 32, N,N′-(((2R,3R,3aR,5R,7aR,9R,10R,10aR,12R,14aR)-3,10-difluoro-5,12-dimercapto-5,12-dioxidooctahydro-2H, 7H-difuro[3,2-d:3′,2′-j][1,3,7,9]tetraoxa[2,8]diphosphacyclododecine-2,9-diyl)bis(6-oxo-6,9-dihydro-1H-purine-9,2-diyl))bis(2-methylpropanamide)]
4120 | Nc1ccn([C@@H]2O[C@@H]3CO[P@@](=O)(S)O[C@H]4[C@@H](F)[C@H](n5cnc6c(N)ncnc65)O[C@@H]4CO[P@@](=O)(S)O[C@H]3[C@H]2F)c(=O)n1 [Compound 37, 4-amino-1-((2R,3R,3aR,5R,7aR,9R,10R,10aR,12R,14aR)-9-(6-amino-9H-purin-9-yl) 3,10-difluoro-5,12-dimercapto 5,12-dioxidooctahydro-2H,7H-difuro[3,2-d:3′,2′-j][1,3,7,9]tetraoxa[2,8]diphosphacyclododecin-2-yl)pyrimidin-2(1H)-one]
3200 | Nc1ccn([C@@H]2O[C@@H]3CO[P@](=O)(S)O[C@H]4[C@@H](F)[C@H](n5cnc6c(N)ncnc65)O[C@@H]4CO[P@@](=O)(S)O[C@H]3[C@H]2F)c(=O)n1 [Compound 37a, 4-amino-1-((2R,3R,3aR,5R,7aR,9R,10R, 10aR,12S,14aR)-9-(6-amino-9H-purin-9-yl)-3,10-difluoro-5,12-dimercapto-5,12-dioxidooctahydro-2H,7H-difuro[3,2-d: 3′,2′-j][1,3,7,9]tetraoxa[2,8]diphosphacyclododecin-2-yl)pyrimidin-2(1H)-one]
966 | CC(C)C(=O)Nc1nc2c(ncn2[C@@H]2O[C@@H]3CO[P@@](=O)(S)O[C@@H]4[C@H](O)[C@@H](CO[P@@](=O)(S)O[C@H]3[C@H]2O)O[C@H]4n2cnc3c(NC(=O)c4ccccc4)ncnc32)c(=O)[nH]1 [Compound 42, dithio-[RP, RP]-cyclic-[ibG(3′,5′)p-BzA(2′,5′)p]]
4040 | Nc1nc2c(ncn2[C@@H]2O[C@@H]3CO[P@](=O)(S)O[C@@H]4[C@H](O)[C@@H](CO[P@](=O)(S)O[C@H]3[C@H]2O)O[C@H]4n2cnc3c(N)ncnc32)c(=O)[nH]1 [Compound 43]
662 | Nc1ncnc2c1ncn2[C@H]1O[C@H]2CO[P@](=O)(S)O[C@@H]3[C@H](O)[C@@H](n4cnc5c(N)ncnc54)O[C@H]3CO[P@](=O)(S)O[C@@H]2[C@@H]1O [Compound 48, (2S,3S,3aR,5S,7aS,9S,10S,10aR,12S,14aS)-2,9-bis(6-amino-9H-purin-9-yl)-3,10-dihydroxy-5,12-dimercaptooctahydro-2H,7H-difuro[3,2-d:3′,2′-j][1,3,7,9]tetraoxa[2,8]diphosphacyclododecine 5,12-dioxide]
308 | Nc1ncnc2c1ncn2[C@H]1O[C@H]2CO[P@@](=O)(S)O[C@@H]3[C@H](O)[C@@H](n4cnc5c(N)ncnc54)O[C@H]3CO[P@](=O)(S)O[C@@H]2[C@@H]1O [Compound 48a, Triethylammonium (2S,3S,3aR,5R,7aS,9S,10S,10aR,12S,14aS)-2,9-bis(6-amino-9H-purin-9-yl)-3,10-dihydroxyoctahydro-2H, 7H-difuro[3,2-d: 3′,2′-j][1,3,7,9]tetraoxa[2,8]diphosphacyclododecine-5,12-bis(thiolate) 5,12-dioxide]
342 | Nc1ncnc2c1ncn2[C@H]1O[C@H]2CO[P@@](=O)(S)O[C@@H]3[C@H](O)[C@@H](n4cnc5c(N)ncnc54)O[C@H]3CO[P@@](=O)(S)O[C@@H]2[C@@H]1O [Compound 48b, triethylammonium (2S,3S,3R,5R,7aS,9S,10S,10aR,12R,14aS)-2,9-bis(6-amino-9H-purin-9-yl)-3,10-dihydroxyoctahydro-2H,7H-difuro[3,2-d: 3′,2′-j][1,3,7,9]tetraoxa[2,8]diphosphacyclododecine-5,12-bis(thiolate) 5,12-dioxide]
5010 | C#CCOc1nc(N)nc2c1ncn2[C@@H]1O[C@@H]2COP(=O)(O)O[C@H]3[C@@H](O)[C@H](n4cnc5c(=O)[nH]c(N)nc54)O[C@@H]3COP(=O)(O)O[C@H]2[C@H]1O [compound 25, 2-amino-9-((2R,3R,3aS,7aR,9R,10R,10aS,14aR)-9-(2-amino-6-(prop-2-yn-1-yloxy)-9H-purin-9-yl)-3,5,10,12-tetrahydroxy-5,12-dioxidooctahydro-2H,7H-difuro[3,2-d:3′,2′-j][1,3,7,9]tetraoxa[2,8]diphosphacyclododecin-2-yl)-1,9-dihydro-6H-purin-6-one]

Source: patent US20180369268A1, “METHODS FOR IDENTIFYING INHIBITORS OF "STIMULATOR OF INTERFERON GENE"- DEPENDENT INTERFERON PRODUCTION” (ADURO BIOTECH, INC., priority 2015, published 2018)
